Source: PubChem BioAssay AID2060888 (Molecular Pharmacology Branch, DTP, NCI, 2025)

Test system: 695427-040-R-J1-PDC complex spheroid viability
Experiment: Anticancer human tumor 695427-040-R-J1-PDC patient-derived colon adenocarcinoma cell line growth inhibition [RAS]
Settings: for IC50: curve of first compound; for viability, T/C: stronger effect = lower value
Excerpt: RAS pathway inhibitors in Combinations in Complex Spheroids
A high-throughput screen of multi-cell type tumor spheroids was designed to identify active combinations of RAS pathway inhibitors and targeted small molecules. Complex spheroids include a stromal component modeled by human endothelial cells (HUVEC) and fibroblasts modeled by human mesenchymal stem cells (MSCs). The concentration ranges selected for each drug and investigational agent were based upon clinically achievable concentrations if the clinical Cmax of the agent was known.
Compounds. The drugs and investigational agents: abemaciclib (NSC768073), cobimetinib (NSC768068), divarasib (GDC6063, NSC841802), docetaxel (NSC628503), GDC-1971 (RLY-1971, NSC841576), gemcitabine (NSC613327), inavolisib (NSC800729), ipatasertib (NSC767898), KB-0742 (NSC834161), MRTX-1133 (NSC836407), osimertinib (NSC779217), RMC-4630 (NSC839698), RMC-6236 (NSC851965), RMC-6291 (NSC852671), Ro-3306 (NSC812927), sapanisertib (NSC764658), SN-38 (NSC673596), staurosporine (NSC755774), SY5609 (NSC837396), and tovorafenib (DAY101, NSC766906), were obtained from the National Cancer Institute (NCI) Developmental Therapeutics Program Chemical Repository. The FDA-approved anticancer drug set is available from the NCI Developmental Therapeutics Program. […] The stock solutions were prepared in dimethyl sulfoxide (DMSO, Sigma-Aldrich, St. Louis, MO, cat. D2650) at 800-fold the tested concentration and stored at -70 degrees C prior to their use. All drugs and investigational agents were tested over a range starting from a high concentration at or near the clinical Cmax and decreasing in half-log increments. If the clinical Cmax for an agent had not been determined, the highest concentration tested was 10 microM.
Cell Culture. All cells were maintained in an incubator at 37 degrees C and 5% CO2 with 95% humidity. The PDC lines were cultured according to standard operating procedures established by the NCI PDMR. All PDCs were thawed and cultured in Matrigel-coated flasks prepared with a working solution of 1X Ham's F-12 nutrient mix, without supplementation (Invitrogen, Waltham, MA, cat. 11765054), 100 U/mL penicillin-streptomycin (Invitrogen, cat. 15140122), and 2.5% Matrigel (Corning Inc., Corning, NY, cat. 354248) for the first three passages. The 362531-283-R-J2-PDC and 782815-120-R-J1-PDC lines were cultured in 6C/Colon 1B media, which includes advanced DMEM/F-12 (Thermo Fisher Scientific, cat. 12634028), 10 mM HEPES (Thermo Fisher Scientific, cat. 15630080), 1X GlutaMAX supplement (Thermo Fisher Scientific, cat. 35050061), 0.1 mg/mL primocin (InvivoGen, San Diego, CA, cat. ant-pm-2), 10% defined fetal bovine serum, heat inactivated (HyClone Laboratories Inc., Logan, UT, cat. SH30070.03HI), 50% L-WRN conditioned media (ATCC, cat. CRL-3276), 1.25 mM N-Acetyl-L-cysteine (Sigma-Aldrich, cat. A9165), 10 mM nicotinamide (Sigma-Aldrich, cat. N0636), 1X B-27 supplement (Thermo Fisher Scientific, cat. 17504044), 1X N-2 supplement (Thermo Fisher Scientific, cat. 17502048), 50 ng/mL human EGF (Thermo Fisher Scientific, cat. PHG0311), and 10 microM Y-27632 dihydrochloride (Tocris Bioscience, cat. 1254). The K12877-001-R-J1-PDC line was cultured in 6I media, which includes all 6C/Colon 1B media plus 10 ng/mL human FGF-10 (PeproTech, cat. 100-26), 1 ng/mL human FGF-2 (PeproTech, cat. 100-18B), 1 µM prostaglandin E2 (Tocris Bioscience, cat. 2296), […] hydrocortisone (Sigma-Aldrich, cat. H4001), and […] bovine insulin (Sigma-Aldrich, cat. I6634). The K86415-001-R-J1-PDC line was cultured in 6D media, which includes all 6C/Colon 1B media components minus the L-WRN conditioned media. The 485176-168-R4-J1-PDC was cultured in PANC media, which includes all 6C/Colon 1B media plus 100 ng/mL human FGF-10 (PeproTech, cat. 100-26), 500 nM SB-431542 (Selleckchem, cat. S1067), and 10 nM gastrin (Tocris Bioscience, cat. 3006). […]

[1] = second compound 0.0316 µM, first compound 0.0316 µM
[2] = second compound 0.0316 µM, first compound 0.1 µM
[3] = second compound 0.0316 µM, first compound 0.316 µM
[4] = second compound 0.0316 µM, first compound 1 µM
[5] = second compound 0.1 µM, first compound 0.0316 µM
[6] = second compound 0.1 µM, first compound 0.1 µM
[7] = second compound 0.1 µM, first compound 0.316 µM
[8] = second compound 0.1 µM, first compound 1 µM
[9] = second compound 0.316 µM, first compound 0.0316 µM
[10] = second compound 0.316 µM, first compound 0.1 µM
[11] = second compound 0.316 µM, first compound 0.316 µM
[12] = second compound 0.316 µM, first compound 1 µM
[13] = second compound 1 µM, first compound 0.0316 µM
[14] = second compound 1 µM, first compound 0.1 µM
[15] = second compound 1 µM, first compound 0.316 µM
[16] = second compound 1 µM, first compound 1 µM
[17] = second compound 3.16 µM, first compound 0.0316 µM
[18] = second compound 3.16 µM, first compound 0.1 µM
[19] = second compound 3.16 µM, first compound 0.316 µM
[20] = second compound 3.16 µM, first compound 1 µM
[21] = second compound 10 µM, first compound 0.0316 µM
[22] = second compound 10 µM, first compound 0.1 µM
[23] = second compound 10 µM, first compound 0.316 µM
[24] = second compound 10 µM, first compound 1 µM
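Note: viability read after seven days of drug exposure.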
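Throughout, for viability, T/C: 100% = DMSO vehicle control viability.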

Structure (SMILES): CCN1CCN(Cc2ccc(Nc3ncc(F)c(-c4cc(F)c5nc(C)n(C(C)C)c5c4)n3)nc2)CC1 + C#Cc1c(F)ccc2cc(O)cc(-c3ncc4c(N5CC6CCC(C5)N6)nc(OCC56CCCN5CC(F)C6)nc4c3F)c12
- IC50 (second compound 0.0316 µM): > 1000 nM
- IC50 (second compound 0.1 µM): > 1000 nM
- IC50 (second compound 0.316 µM): > 1000 nM
- IC50 (second compound 1 µM): > 1000 nM
- IC50 (second compound 3.16 µM): > 1000 nM
- IC50 (second compound 10 µM): < 3.16 nM
- viability, T/C (second compound 0.0316 µM, first compound 0.00316 µM): 94.9%
- viability, T/C (second compound 0.0316 µM, first compound 0.01 µM): 102%
- viability, T/C [1]: 85.8%
- viability, T/C [2]: 88.4%
- viability, T/C [3]: 100%
- viability, T/C [4]: 106%
- viability, T/C (second compound 0.1 µM, first compound 0.00316 µM): 93%
- viability, T/C (second compound 0.1 µM, first compound 0.01 µM): 92.9%
- viability, T/C [5]: 90.5%
- viability, T/C [6]: 79.4%
- viability, T/C [7]: 91.6%
- viability, T/C [8]: 96.3%
- viability, T/C (second compound 0.316 µM, first compound 0.00316 µM): 83.1%
- viability, T/C (second compound 0.316 µM, first compound 0.01 µM): 85.3%
- viability, T/C [9]: 78.1%
- viability, T/C [10]: 78.6%
- viability, T/C [11]: 77.7%
- viability, T/C [12]: 85.6%
- viability, T/C (second compound 1 µM, first compound 0.00316 µM): 75.2%
- viability, T/C (second compound 1 µM, first compound 0.01 µM): 68.1%
- viability, T/C [13]: 61%
- viability, T/C [14]: 60.5%
- viability, T/C [15]: 74.1%
- viability, T/C [16]: 71.3%
- viability, T/C (second compound 3.16 µM, first compound 0.00316 µM): 53.3%
- viability, T/C (second compound 3.16 µM, first compound 0.01 µM): 52.9%
- viability, T/C [17]: 51.2%
- viability, T/C [18]: 48.2%
- viability, T/C [19]: 50.6%
- viability, T/C [20]: 62%
- viability, T/C (second compound 10 µM, first compound 0.00316 µM): 41.1%
- viability, T/C (second compound 10 µM, first compound 0.01 µM): 45.2%
- viability, T/C [21]: 36.4%
- viability, T/C [22]: 33.1%
- viability, T/C [23]: 30.8%
- viability, T/C [24]: 32.6%

Structure (SMILES): C[C@@H](NC(=O)c1ncnc(N)c1Cl)c1ncc(C(=O)Nc2cc(C(F)(F)F)c(Cl)cn2)s1 + C#Cc1c(F)ccc2cc(O)cc(-c3ncc4c(N5CC6CCC(C5)N6)nc(OCC56CCCN5CC(F)C6)nc4c3F)c12
- IC50 (second compound 0.0316 µM): > 10000 nM
- IC50 (second compound 0.1 µM): > 10000 nM
- IC50 (second compound 0.316 µM): > 10000 nM
- IC50 (second compound 1 µM): > 10000 nM
- IC50 (second compound 3.16 µM): > 10000 nM
- IC50 (second compound 10 µM): < 31.6 nM
- viability, T/C [1]: 99.8%
- viability, T/C [2]: 117%
- viability, T/C [3]: 108%
- viability, T/C [4]: 102%
- viability, T/C (second compound 0.0316 µM, first compound 3.16 µM): 101%
- viability, T/C (second compound 0.0316 µM, first compound 10 µM): 80.2%
- viability, T/C [5]: 109%
- viability, T/C [6]: 106%
- viability, T/C [7]: 101%
- viability, T/C [8]: 100%
- viability, T/C (second compound 0.1 µM, first compound 3.16 µM): 94.3%
- viability, T/C (second compound 0.1 µM, first compound 10 µM): 70.9%
- viability, T/C [9]: 99.8%
- viability, T/C [10]: 95.1%
- viability, T/C [11]: 101%
- viability, T/C [12]: 93%
- viability, T/C (second compound 0.316 µM, first compound 3.16 µM): 81.6%
- viability, T/C (second compound 0.316 µM, first compound 10 µM): 70.3%
- viability, T/C [13]: 87.9%
- viability, T/C [14]: 83.2%
- viability, T/C [15]: 88.5%
- viability, T/C [16]: 84.1%
- viability, T/C (second compound 1 µM, first compound 3.16 µM): 76.3%
- viability, T/C (second compound 1 µM, first compound 10 µM): 57.2%
- viability, T/C [17]: 59.2%
- viability, T/C [18]: 60.5%
- viability, T/C [19]: 65.9%
- viability, T/C [20]: 63.9%
- viability, T/C (second compound 3.16 µM, first compound 3.16 µM): 56.9%
- viability, T/C (second compound 3.16 µM, first compound 10 µM): 42.5%
- viability, T/C [21]: 35.1%
- viability, T/C [22]: 34.4%
- viability, T/C [23]: 42.2%
- viability, T/C [24]: 37.9%
- viability, T/C (second compound 10 µM, first compound 3.16 µM): 41.3%
- viability, T/C (second compound 10 µM, first compound 10 µM): 27.8%
